# Experimental data taken from patent publication US20050069496A1, “Methods of screening, determining, developing and utilizing negative cross resistance toxins” (priority 2001, published 2005).
# Like-named read-outs stand apart in the source and are kept apart here. Marks after values point to notes of the source that are not given here.
# Legend:
# [1] = test system: Canton-S (DDT susceptible flies) and para^tsl (DDT resistant flies); assay: Initial screen of DDT and 8 pyrethroids, Canton-S versus para^tsl flies; assay type: in vivo, Drosophila melanogaster; conditions: for Fly Line Preferentially Killed by the Toxin: across the doses
# Description: A test was conducted utilizing an initial screen of DDT and 8 pyrethroids against Canton-S (DDT susceptible flies) and para^tsl (DDT resistant flies). […]
# para^tsl flies = assay: Fly mortality bioassay, para^tsl; assay type: in vivo, Drosophila melanogaster; conditions: for Resistance Ratio: Para^tsl
# Description: (§1) A test was conducted utilizing an initial screen of DDT and 8 pyrethroids against Canton-S (DDT susceptible flies) and para^tsl (DDT resistant flies).
# (§2) As a further step in the test, heterozygotes were tested with either deltamethrin or DDT.
# heterozygous fly lines [2] = conditions: stated as known; cited from earlier work
# Canton-S flies = assay: Fly mortality bioassay, Canton-S; assay type: in vivo, Drosophila melanogaster; conditions: for Resistance Ratio: Canton-S, LD50 over LD50 of para^tsl males
# Description: as §1, §2
# heterozygous fly lines [3] = assay: Fly mortality bioassay, heterozygotes; assay type: in vivo, Drosophila melanogaster
# Description: as §2
# An additional test was conducted to determine if DDT and deltamethrin applied at the same time killed the heterozygotes.
# FIG. 17 graphically illustrates the application of deltamethrin by itself 220, the application of DDT by itself 222, and the application of both deltamethrin and DDT at the same time 224 to para^tsl flies, Canton-S flies, and heterozygotes.
# [4] = test system: Mycosphaeralla graminicola Wild type and Tri R1 resistant strains; assay: Cross-resistance comparison of resistant and wild type fungal lines; assay type: cell-based; conditions: for Resistance Ratio: Tri R1 resistant versus wild type; for Resistance Type: compared to resistance to Triadimenol, not tested statistically; for Possible Resistance Type: after Bonferroni correction
# Excerpt: In one embodiment, large-scale screens are utilized to determine NCR toxins that can be used against fungicide resistance. For such a screen, there will be one of three outcomes: (1) positive cross-resistance, (2) neutral (no cross-resistance), and (3) negative cross-resistance. Table 3 illustrates the EC50 for each toxin as given on two lines of Mycosphaeralla graminicola. The EC50 is the effective concentration that will kill fifty percent of the organisms in a test population. One line is Triadimenol susceptible and the other line is resistant to this compound. An estimate is made of the nature of resistance of these two lines to nine other toxins. The resistance is defined as (i) positive cross-resistance, (ii) negative cross-resistance or (iii) no cross-resistance (neutral) as compared to the resistance to Triadimenol (1RS,2RS;1RS,2RS)-1-(4chlorophenoxy)-3,3-dimethyl-1-(1H-1,2,4-trizol-1-yl) butan-1-o. Such a comparison is useful in a large-scale screen for NCR toxins for fungicides.
# Three of the compounds listed in Table 3 are indicated as potential NCR toxins (Triflumizole, Ferarimol, and Nuarimol). In one embodiment, screening resources are used efficiently, i.e. the potential for identifying false-positives is minimized, by focusing on investigating potential NCR toxins through a test with a correction factor, such as a Bonferroni correction. Alternatively, other correction factors can be used including, but not limited to, Duncan's method. […] Where differential toxicity occurs between the two fungal lines on a given toxin, a difference in toxicity between the two lines is determined. If the fungal line that was resistant to the first toxin (e.g. Triadimenol) is now more susceptible to the new toxin (e.g. Triflumizole, Ferarimol, or Nuarimol) potential NCR toxin pairs are identified.
# Differences between toxins, in terms of NCR activity, may be indicated where such differences may not truly exist (type I error in statistical hypothesis testing). In the present example, the confidence interval is extended using, for example, Bonferroni correction, which is needed to control for false positives in detection of NCR toxins in large-screen tests. A NCR factor is declared if the second toxin requires a lower dosage to kill the resistant line as compared to the wild type fungal line or lines. The consequences of a failure to use Bonferroni correction normally results in higher numbers of false positives in a large-scale screen. Toxins that are selected on the basis of no correction may still be considered as putative NCR toxins, but deserving less consideration than those identified using the correction method. A Bonferroni correction is thus performed on the three putative NCR toxins (and the reference toxin) to determine if one of the toxins is a NCR factor.
# Table 4 illustrates the Bonferroni corrected data (from Table 3 above) of the reference compound (Triadimenol) and the three putative NCR toxins for fungicide resistance. The correction was made based on four compounds tested, each with minimally five doses to calculate the effective concentration fifty (EC50).
# TF-FVIIa complex = TF-FVIIa complex (Homo sapiens, UniProt P08709); conditions: Inhibitor concentration ± standard error; read-out: FX activation (IC50); cited from earlier work
# [5] = test system: Drosophila sodium channel, para, resistance mutation line; conditions: mutation not observed in nature; cited from earlier work
# Sequence of TF-FVIIa complex (P08709 213-466 limits assumed): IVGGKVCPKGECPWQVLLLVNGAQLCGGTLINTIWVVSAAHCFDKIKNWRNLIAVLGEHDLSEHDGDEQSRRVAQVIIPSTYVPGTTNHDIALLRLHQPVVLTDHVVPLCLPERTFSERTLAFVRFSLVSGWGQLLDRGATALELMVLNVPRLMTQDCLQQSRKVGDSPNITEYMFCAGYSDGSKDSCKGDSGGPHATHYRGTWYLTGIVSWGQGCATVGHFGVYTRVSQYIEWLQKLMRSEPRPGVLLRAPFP
# Sequence of TF-FVIIa complex (P08709 61-212 limits assumed): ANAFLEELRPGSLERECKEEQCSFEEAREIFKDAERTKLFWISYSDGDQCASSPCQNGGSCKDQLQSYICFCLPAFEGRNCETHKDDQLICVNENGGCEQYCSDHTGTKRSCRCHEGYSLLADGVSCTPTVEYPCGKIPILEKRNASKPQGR
# Sequence of TF-FVIIa complex (P13726 33-295 partner): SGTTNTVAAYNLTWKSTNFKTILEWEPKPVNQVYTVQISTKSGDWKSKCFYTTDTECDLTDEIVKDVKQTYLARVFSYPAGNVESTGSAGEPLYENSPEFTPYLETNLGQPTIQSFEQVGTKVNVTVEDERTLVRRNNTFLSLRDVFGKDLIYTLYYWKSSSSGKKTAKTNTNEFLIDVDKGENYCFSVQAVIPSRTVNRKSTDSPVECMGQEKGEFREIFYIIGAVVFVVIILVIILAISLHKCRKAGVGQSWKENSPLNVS
molecule,measurement,setting,value
CC(C)[C@H](C(=O)O[C@H](C#N)c1cccc(Oc2ccccc2)c1)c1ccc(Cl)cc1 [Asana],Fly Line Preferentially Killed by the Toxin,[1],Neither
C=CCC1=C(C)C(OC(=O)C2C(C=C(C)C)C2(C)C)CC1=O [D-trans allethrin],Fly Line Preferentially Killed by the Toxin,[1],Neither
Clc1ccc(C(c2ccc(Cl)cc2)C(Cl)(Cl)Cl)cc1 [DDT],Percent Dead Para^tsl,para^tsl flies; Dose 0.2,13.3%
same,Percent Dead Para^tsl,para^tsl flies; Dose 0.5,0%
same,Percent Dead Para^tsl,para^tsl flies; Dose 1,0%
same,Percent Dead Para^tsl,para^tsl flies; Dose 2,3.3%
same,Percent Dead Para^tsl,para^tsl flies; Dose 5,6.7%
same,Percent Dead Para^tsl,para^tsl flies; Dose 8,23.3%
same,Percent Dead Para^tsl,para^tsl flies; Dose 10,13.3%
same,Percent Dead Para^tsl,para^tsl flies; Dose 15,8.3%
same,Percent Dead Para^tsl,para^tsl flies; Dose 20,6.7%
same,Fly Line Preferentially Killed by the Toxin,[1],Canton-S
same,Resistance of heterozygotes,heterozygous fly lines [2],heterozygotes are resistant to DDT
same,Percent Dead Cantons-S,Canton-S flies; Dose 0.2,11.7%
same,Percent Dead Cantons-S,Canton-S flies; Dose 0.5,8.3%
same,Percent Dead Cantons-S,Canton-S flies; Dose 1,6.7%
same,Percent Dead Cantons-S,Canton-S flies; Dose 2,15.0%
same,Percent Dead Cantons-S,Canton-S flies; Dose 5,35.0%
same,Percent Dead Cantons-S,Canton-S flies; Dose 8,48.3%
same,Percent Dead Cantons-S,Canton-S flies; Dose 10,43.3%
same,Percent Dead Cantons-S,Canton-S flies; Dose 15,75.0%
same,Percent Dead Cantons-S,Canton-S flies; Dose 20,71.7%
CC1(C)[C@H](C(=O)O[C@H](C#N)c2cccc(Oc3ccccc3)c2)[C@@H]1C=C(Br)Br [Deltamethrin],Percent Dead Para^tsl,para^tsl flies; Dose 0.2,98.3%
same,Percent Dead Para^tsl,para^tsl flies; Dose 0.5,100%
same,Percent Dead Para^tsl,para^tsl flies; Dose 1,85.0%
same,Percent Dead Para^tsl,para^tsl flies; Dose 2,100%
same,Percent Dead Para^tsl,para^tsl flies; Dose 5,100%
same,Percent Dead Para^tsl,para^tsl flies; Dose 8,100%
same,Percent Dead Para^tsl,para^tsl flies; Dose 10,98.3%
same,Percent Dead Para^tsl,para^tsl flies; Dose 15,100%
same,Percent Dead Para^tsl,para^tsl flies; Dose 20,100%
same,Resistance Ratio,"para^tsl flies; Female, LD50 over LD50 of para^tsl males",1.4
same,Resistance Ratio,"para^tsl flies; Male, denominator line",1.0*
same,Resistance Ratio,"heterozygous fly lines [3]; Heterozygotes, Female, LD50 over LD50 of para^tsl males",21.5
same,Resistance of heterozygotes,heterozygous fly lines [3]; from Table 8,resistant to deltamethrin and resistance is dominant
same,Fly Line Preferentially Killed by the Toxin,[1],Para^tsl
same,Fly Line Preferentially Killed by the Toxin,[1]; listed as deltamethrin,more toxic to para^tsl flies than to Canton-S flies
same,Preferential killing when tested by individual doses,[1]; individual doses,preferentially killed para^tsl flies
same,Resistance Ratio,Canton-S flies; Female,24.7
same,Resistance Ratio,Canton-S flies; Male,9.9
same,Percent Dead Cantons-S,Canton-S flies; Dose 0.2,31.7%
same,Percent Dead Cantons-S,Canton-S flies; Dose 0.5,56.7%
same,Percent Dead Cantons-S,Canton-S flies; Dose 1,26.7%
same,Percent Dead Cantons-S,Canton-S flies; Dose 2,93.3%
same,Percent Dead Cantons-S,Canton-S flies; Dose 5,100%
same,Percent Dead Cantons-S,Canton-S flies; Dose 8,96.7%
same,Percent Dead Cantons-S,Canton-S flies; Dose 10,98.3%
same,Percent Dead Cantons-S,Canton-S flies; Dose 15,100%
same,Percent Dead Cantons-S,Canton-S flies; Dose 20,98.3%
CC(Cc1ccc(C(C)(C)C)cc1)CN1C[C@@H](C)O[C@@H](C)C1 (stereo partly shown) [Fenpropimorph],Resistance Ratio,[4],0.9
same,Resistance Type,[4],Neutral
OC(c1ccc(Cl)cc1)(c1cncnc1)c1ccccc1Cl (stereo not shown) [Ferarimol],Resistance Ratio,[4],0.3
same,Possible Resistance Type,[4],Negative
same,Resistance Type,[4],Negative
O=c1c2cc(F)ccc2nc(-n2cncn2)n1-c1ccc(Cl)cc1Cl [Fluquinconazole],Resistance Ratio,[4],0.4
same,Resistance Type,[4],Negative
C[Si](Cn1cncn1)(c1ccc(F)cc1)c1ccc(F)cc1 [Flusilazole],Resistance Ratio,[4],4.2
same,Resistance Type,[4],Positive
C=CCOC(Cn1ccnc1)c1ccc(Cl)cc1Cl (stereo not shown) [Imazalil],Resistance Ratio,[4],5.0
same,Resistance Type,[4],Positive
OC(c1ccc(F)cc1)(c1cncnc1)c1ccccc1Cl (stereo not shown) [Nuarimol],Resistance Ratio,[4],0.4
same,Possible Resistance Type,[4],Negative
same,Resistance Type,[4],Negative
CC1(C)[C@H](/C=C(\Cl)C(F)(F)F)[C@@H]1C(=O)O[C@@H](C#N)c1cccc(Oc2ccccc2)c1 [PP321],Fly Line Preferentially Killed by the Toxin,[1],Neither
Cc1c(F)c(F)c(COC(=O)[C@H]2[C@@H](/C=C(\Cl)C(F)(F)F)C2(C)C)c(F)c1F [PP993],Fly Line Preferentially Killed by the Toxin,[1],Canton-S
CC1(C)C(C=C(Cl)Cl)C1C(=O)OCc1cccc(Oc2ccccc2)c1 (stereo not shown) [Permethrin],Fly Line Preferentially Killed by the Toxin,[1],Para^tsl
same,Fly Line Preferentially Killed by the Toxin,[1]; listed as permethrin,more toxic to para^tsl flies than to Canton-S flies
CCCN(CCOc1c(Cl)cc(Cl)cc1Cl)C(=O)n1ccnc1 [Prochloraz],Resistance Ratio,[4],3.3
same,Resistance Type,[4],Positive
CC(C)=CC1C(C(=O)OCc2coc(Cc3ccccc3)c2)C1(C)C (stereo not shown) [Resmethrin],Fly Line Preferentially Killed by the Toxin,[1],Para^tsl
CC(C)(C)C(O)(CCc1ccc(Cl)cc1)Cn1cncn1 (stereo not shown) [Tebuconazole],Resistance Ratio,[4],3.3
same,Resistance Type,[4],Positive
CC1(C)C(C=C(Cl)Cl)C1C(=O)OC(C#N)c1ccc(F)c(Oc2ccccc2)c1 (stereo not shown) [Tempo],Fly Line Preferentially Killed by the Toxin,[1],Para^tsl
"CC(C)(C)C(O)C(Oc1ccc(Cl)cc1)n1cncn1 (stereo not drawn) [Triadimenol, (1RS,2RS;1RS,2RS)-1-(4chlorophenoxy)-3,3-dimethyl-1-(1H-1,2,4-trizol-1-yl) butan-1-o]",Resistance Ratio,[4],31
CCCOC/C(=N\c1ccc(Cl)cc1C(F)(F)F)n1ccnc1 [Triflumizole],Resistance Ratio,[4],0.3
same,Possible Resistance Type,[4],Neutral (n.s.)†
same,Resistance Type,[4],Negative
"consensus sequence from the hard randomization, C (MEEWEVLCWTWETCERGEGQ), Z-domain fusion [C-Z]",IC50,TF-FVIIa complex,5.9 ± 0.9 nM
"AaIT: a protein isolated from Scorpion toxin (protein, UniProt P01497 19-88, looked up) Beta-insect excitatory toxin 1: KKNGYAVDSSGKAPECLLSNYCNNECTKVHYADKGYCCLLSCYCFGLNDDKKVLEISDTRKSYCDTTIIN",NCR in a resistance mutation line,[5],no NCR
